Earlier results as cited in US8506932B2, “Tetracyclic indole derivatives as in vivo imaging agents and having peripheralbenzodiazepine receptor affinity (PBR)” (Hammersmith Imanet Limited, priority 2005, dated 2013).

Key:
PBR = PBR (Homo sapiens, UniProt P30536); conditions: stated as known limitation
[1] = stated as known limitation

Chain of PBR (P30536 whole entry, species assumed): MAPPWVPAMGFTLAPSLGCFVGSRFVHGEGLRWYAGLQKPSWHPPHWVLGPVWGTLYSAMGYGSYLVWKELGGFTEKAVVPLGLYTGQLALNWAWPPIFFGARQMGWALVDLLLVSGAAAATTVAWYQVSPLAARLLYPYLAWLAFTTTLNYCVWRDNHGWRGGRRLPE

CC[C@@H](C)N([11CH3])C(=O)c1cc2ccccc2c(-c2ccccc2Cl)n1 [(R)-[11C]PK11195]
specific to non-specific binding (PBR): low
protein binding [1]: high
